Source: US6706291B1, “Poultry producibility improver and poultry producibility improvement method” (Taiyo Kagaku Co., Ltd., priority 2001, dated 2004)

Legend:
[1] = tested on: White Cornish edible chickens; experiment: Test Example 3: K value, TBA value, POV value of chicken meat after storage; type: in vivo; conditions: for K Value of Chicken Meat after 10 Days of Storage: storage at 4° C.
Source text: In the present invention, the expression “keeping freshness of chicken meat” refers to suppression of an increase during storage in a numerical value, such as K value (ratio of inosine and hypoxanthine content to the sum of ATP, ADP, AMP, IMP, inosine and hypoxanthine contents in chicken meat as expressed in percentage), VBN value (a total amount of volatile basic substances, such as ammonia and trimethylamine, in chicken meat), TMA value (trimethylamine content in chicken meat) and polyamine content (total amount of decarboxylated products of free amino acids, such as putrescine, cadaverine, agmatine, histamine, tyramine, tryptamine and spermidine, in chicken meat), metmyoglobin formation ratio (ratio of myoglobin oxidized to metmyoglobin in muscular tissue of chicken meat), TBA value (ratio of fatty acids oxidized to fatty acids in chicken meat), POV value (peroxide value: ratio of oil or fat oxidized in chicken meat), and bacterial cell count (number of bacterial cells in chicken meat). In the present invention, it is preferable that at least one selected from the group consisting of K value, TBA value and POV value is used as an index for keeping freshness of chicken meat. Because the K value is most generally used as an index for freshness, it is more preferable to use the K value as an index for keeping freshness of chicken meat. White Cornish edible chickens were bred for 7 weeks from newly-hatched chickens. The hatched chickens were divided into 17 groups, the groups AA to QQ of 200 chickens per group. […] The edible chickens were fed with a commercially available formula feed for edible chickens, and allowed to take feed and water ad libitum. […] The liveability is shown in Table 17 and the weekly body weight gain in Table 18, respectively. […] Furthermore, changes in the TBA value and in the POV value of each of the breast meat, the leg meat and the chicken fat after storage were determined in the same manner. The cholesterol content is shown in Table 19, the change in the K value after storage in Table 20, the change in the TBA value after storage in Table 21, and the change in the POV value after storage in Table 22, respectively.

[2] = tested on: White Cornish edible chickens; experiment: Test Example 3: liveability and weekly body weight gain of edible chickens; type: in vivo, chicken
Source text: (§1) White Cornish edible chickens were bred for 7 weeks from newly-hatched chickens. The hatched chickens were divided into 17 groups, the groups AA to QQ of 200 chickens per group. […] The edible chickens were fed with a commercially available formula feed for edible chickens, and allowed to take feed and water ad libitum. […] The liveability is shown in Table 17 and the weekly body weight gain in Table 18, respectively. […] Furthermore, changes in the TBA value and in the POV value of each of the breast meat, the leg meat and the chicken fat after storage were determined in the same manner. The cholesterol content is shown in Table 19, the change in the K value after storage in Table 20, the change in the TBA value after storage in Table 21, and the change in the POV value after storage in Table 22, respectively.

[3] = tested on: White Cornish edible chickens; experiment: Test Example 3: cholesterol content of breast meat, leg meat and chicken fat; type: in vivo
Source text: as §1

[4] = tested on: eggs of Isabrown laying hens; experiment: Test Example 2: DHA, EPA, vitamin E content and Haugh unit of eggs during storage; type: in vivo, chicken; conditions: for EPA Content / Haugh Unit / Vitamin E Content / DHA Content: eggs after 4 months; for DHA Content: feed with fish oil and vitamin E
Protocol: Isabrown laying hens were bred in poultry houses of the windless vertical 2-shelf cage type. Seventeen poultry houses a to q (10,000 hens/poultry house) were set, and a field test concerning suppression of a decrease in highly unsaturated fatty acid content during storage of eggs laid by laying hens was carried out. […] In addition, the laying hens were fed with a feed prepared by adding 2 kg of a fish oil and 10 g of vitamin E to 100 kg of a cormnercially available feed for laying hens. In addition, the laying hens were allowed to take water ad libitum.
After 4 months from initiation of the test, 20 eggs each were collected from each poultry house. DHA content and EPA content of the eggs, as indices for highly unsaturated fatty acid, were determined on the day of collection for 10 of the eggs, and after 2 weeks of storage at 4° C. for the remaining 10 eggs, respectively. Vitamin E content and Haugh unit were also determined. A change in the DHA content, a change in the EPA content, a change in the vitamin E content, and a change in the Haugh unit are shown in Tables 12, 13, 14 and 15, respectively.

[5] = tested on: White Leghorn laying hens; experiment: Test Example 1: field test on producibility of laying hens (liveability, egg production indices); type: in vivo, chicken; conditions: for Liveability: additive in feed entire breeding period; for Number of Eggs Produced / Weight of Produced Eggs: 30,000 hens/poultry house
Protocol: White Leghorn laying hens at 121 days of age were housed in poultry houses of the windless vertical 6-shelf cage type and bred therein for 1 year. Eighteen poultry houses A to R (30,000 hens/poultry house) were set, and a field test concerning improvement in producibility by laying hens was carried out.
The laying hens were fed with a commercially available formula feed for laying hens, and allowed to take water ad libitum.
As indices for the producibility, there were obtained a liveability, a rate of laying, each egg weight and a weight of eggs produced per day, each item being at 4 months after initiation of the test, and a total number of eggs produced and a total egg weight during the 4-month period from initiation of the test. The same items were also determined at 8 and 12 months after initiation of the test. […] In the following tables, the indications “4M, 8M, 12M” stand for 4 months, 8 months, and 12 months after initiation of the test, respectively.

[6] = tested on: eggs of White Leghorn laying hens; experiment: Test Example 1: Haugh unit and vitamin E content of eggs during storage; type: in vivo, chicken; conditions: for Haugh Unit / Vitamin E Content: eggs collected after 4 months
Protocol: Here, the term “Haugh unit” mentioned above refers to an index showing an extent of deterioration of thick albumen and is defined as the numeral calculated using the equation: […]
wherein H is a height (mm) of thick albumen; and W is an egg weight (g).
Furthermore, after 4 months from initiation of the test, 20 eggs each were collected from each poultry house. Haugh unit and vitamin E content were determined on the day of collection for 10 of the eggs, and after 2 weeks of storage at 4° C. for the remaining 10 eggs, respectively.

[7] = After 2 Weeks of Storage at 4° C.
[8] = Immediately After Egg Production

## (−)-epigallocatechin gallate
[1]; Breast Meat
  Change in POV Value after 10 Days Storage: 1.52
  Change in TBA Value after 10 Days Storage: 0.44
  K Value of Chicken Meat after 10 Days of Storage: 55.3
[1]; Chicken Fat
  Change in POV Value after 10 Days Storage: 1.80
  Change in TBA Value after 10 Days Storage: 0.42
[1]; Leg Meat
  Change in POV Value after 10 Days Storage: 1.53
  Change in TBA Value after 10 Days Storage: 0.40
  K Value of Chicken Meat after 10 Days of Storage: 55.4
[2]; after breeding for 7 weeks
  Weekly Body Weight Gain: 462.5 g
[2]; after breeding for 7 weeks, 200 chickens per group
  Liveability: 96.33%
[2]; all indices of Test Example 3
  Effect on liveability, weekly body weight gain, cholesterol content, K, TBA and POV values, in words: no effect was found
[3]; Breast Meat
  Cholesterol Content: 72.0 mg based on 100 g of chicken meat or chicken fat
[3]; Chicken Fat
  Cholesterol Content: 227.6 mg based on 100 g of chicken meat or chicken fat
[3]; Leg Meat
  Cholesterol Content: 86.0 mg based on 100 g of chicken meat or chicken fat
[4]; 2 weeks of storage at 4° C.
  Effect on decrease in DHA, EPA, vitamin E content and Haugh unit during egg storage, in words: no effect was found
[4]; [7]
  EPA Content: 84.0 mg based on 100 g of egg yolk solution
  Haugh Unit: 80.9
  Vitamin E Content: 1.7 mg based on 100 g of egg yolk solution
  DHA Content: 1,344.0 mg based on 100 g of egg yolk solution
[4]; [8]
  EPA Content: 103.8 mg based on 100 g of egg yolk solution
  Haugh Unit: 96.5
  Vitamin E Content: 3.0 mg based on 100 g of egg yolk solution
  DHA Content: 1,493.1 mg based on 100 g of egg yolk solution
[5]; 4M after initiation of test
  Each Egg Weight: 58.6 g
  Rate of Egg Production: 92.3%
  Weight of Eggs Produced Per Day: 53.97 g
  Liveability: 98.90%
[5]; 4M
  Number of Eggs Produced: 295,589 ct
  Weight of Produced Eggs: 17,321.5 kg
[5]; 8M after initiation of test
  Each Egg Weight: 61.7 g
  Rate of Egg Production: 82.9%
  Weight of Eggs Produced Per Day: 51.05 g
  Liveability: 97.81%
[5]; 8M
  Number of Eggs Produced: 714,941 ct
  Weight of Produced Eggs: 44,111.9 kg
[5]; 12M after initiation of test
  Each Egg Weight: 63.1 g
  Rate of Egg Production: 72.9%
  Weight of Eggs Produced Per Day: 47.68 g
  Liveability: 95.02%
[5]; 12M
  Number of Eggs Produced: 1,054,111 ct
  Weight of Produced Eggs: 66,514.4 kg
[5]; compared with poultry house Q given only an ordinary feed / houses H to R
  Effect on producibility indices (liveability, rate of egg production, egg weight, eggs produced), in words: an effect of addition of these additives was not found
[6]; 2 weeks of storage at 4° C.
  Effect on decrease in Haugh unit and vitamin E content during egg storage, in words: no effect was found
[6]; [7]
  Haugh Unit: 79.9
  Vitamin E Content: 2.0 mg based on 100 g of egg yolk solution
[6]; [8]
  Haugh Unit: 98.0
  Vitamin E Content: 3.1 mg based on 100 g of egg yolk solution
